The source of these data is article PMC4669759 (Cell Death & Disease, 2015).

Several values for one entry are separate records, joined by “and”; a condition that tells them apart may be missing. Equal entries are not always repeated. Some results are limits rather than exact numbers.

One test relates to MCL1 mRNA. Briefly: MCL1 mRNA by reverse transcriptase-PCR in HCC-1806 cells. Conditions: 8 h. It counts as cell-based. The procedure: Figure 1 MCL-1 levels are elevated in cancer cells after treatment with MCL-1-binding small molecules. (a) H929 multiple myeloma cells were treated for 4 h with 10 μM A-1210477 before immunopreciptating MCL-1. […] A control H929 lysate was run in lane 1, and an immunoprecipitation with a non-specific antibody (Ig) was run in lane 2. The positions of molecular weight markers (specified in kiloDaltons) are indicated on the left. (b) HCC-1806 breast cancer cells were incubated with increasing concentrations of A-1210477 (0.1, 0.5, 1, 5, 10, 15, or 20 μM) or bortezomib (2, 10, or 50 nM) for 8 h before assessing MCL-1 and NOXA levels by immunoblotting. β-Actin was probed as a protein loading control. The lower graph depicts reverse transcriptase-PCR quantification of MCL1 mRNA from HCC-1806 cells treated for 8 h with similar concentrations of A-1210477. (c) HCC-1806 cells were incubated with increasing concentrations (0.1, 0.5, 1, 5, 10, and 20 μM) of A-954248, A-962653, or A-1248767 for 24 h before assessing MCL-1 and BCL-XL levels by immunoblotting. β-Actin was probed as a protein loading control

Test [1] has as its target T1, MCL-1 (Homo sapiens, UniProt Q07820). Set-up: endogenous in cells; host or cells: HCC-1806; method as in PMID 25679114. Conditions: in the presence of 10% human serum; cited from earlier work.
A further test concerns RS4;11 cell line. The test can be described thus: Cell viability, RS4;11 cells. The format is cell-based. Conditions: RS4;11, 48 h. The method, then:
Figure 4 Indole-2-carboxylic acids induce the hallmarks of apoptosis in MCL-1-dependent cancer cell line H929. (a) Digitonin-permeabilized H929 cells were treated with 10 μM BH3 peptides for 4 h, and intact H929 cells were incubated with increasing concentrations (0.1–10 μM) of A-1208746 for 4 h before assessing the levels of cytochrome c released into the cytosol. (b) H929 and RS4;11 cells were incubated with increasing concentrations of MCL-1 inhibitors or the BCL-2-selective inhibitor ABT-199 (venetoclax) for 48 h before determining cell viability. Cell killing IC50s are plotted with each value representing the mean of three separate experiments. Error bars represent the S.E.M. (c) H929 cells were incubated with increasing concentrations of MCL-1 inhibitors in the presence or absence of the pan-caspase inhibitor QVD (100 μM) for 4 h before assessing caspase-3/-7 activation, mitochondrial membrane polarization, and the exposure of phosphatidylserine. […]
Adherent cell lines were seeded at 50 000 cells per well in 96-well plates and treated for 48 h with compounds diluted in half-log steps starting at 30 μM and ending at 0.001 μM. […] Effects on proliferation and viability were determined using CellTiter-Glo reagent from Promega (Madison, WI, USA) according to the manufacturer's instructions. IC50 values were determined by non-linear regression analysis of the concentration response data.

The next test deals with BCL-XL (Homo sapiens, UniProt Q07817). Briefly: TR-FRET binding affinity assay, BCL-XL. The method, then: (§1) TR-FRET-binding affinity assays were performed for BCL-2, BCL-XL, and MCL-1 in 4.52 mM monobasic potassium phosphate, 15.48 mM dibasic potassium phosphate, 1 mM sodium EDTA, 0.05% Pluronic F-68 detergent, 50 mM sodium chloride, and 1 mM DTT (pH 7.5) as described previously for BCL-XL.[6] For MCL-1 assays, GST-tagged MCL-1 (1 nM) was mixed with 100 nM f-Bak, 1 nM Tb-labeled anti-GST antibody, and compound at room temperature (RT) for 60 min. Fluorescence was measured on an Envision plate reader (Perkin-Elmer, Waltham, MA, USA) using a 340/35 nm excitation filter and 520/525 (f-Bak) and 495/510 nm (Tb-labeled anti-GST antibody) emission filters.

The target of test [2] is T1, MCL-1. The test can be described thus: TR-FRET binding affinity assay, MCL-1. The method, then: as §1
In general terms: Time-resolved FRET reads energy transfer from a long-lived donor to a nearby acceptor.

The subject of the next test is EJ-1 cells. The test can be described thus: Navitoclax / A-1210477 combination cell viability, EJ-1 cells. The format is cell-based. Conditions: EJ-1, 48 h. The method, then: Figure 6 A-1210477 synergizes with navitoclax to kill hematological and solid tumor cell lines. BxPC-3, EJ-1, H23, and OPM-2 cells were treated with increasing concentrations of navitoclax in the presence or absence of increasing concentrations of A-1210477 for 48 h before assessing cell viability. All data points represent the means of triplicate experiments, with error bars indicating the S.E.M. TEXT PRINTED IN THE PICTURE: A-1210477 + navitoclax: Bliss sum (BxPC-3): 716; Bliss sum (EJ-1): 464; Bliss sum (H23): 76; Bliss sum (OPM-2): 946 DOUBTS OF THE COPYIST ABOUT THIS PICTURE: The Bliss sums apply to the combination of A-1210477 and navitoclax. The picture prints the two names separately (legend heading and axis title), not as one joined label.
Adherent cell lines were seeded at 50 000 cells per well in 96-well plates and treated for 48 h with compounds diluted in half-log steps starting at 30 μM and ending at 0.001 μM. Multiple myeloma cell lines were seeded at 15 000–20 000 cells per well and treated similarly. Effects on proliferation and viability were determined using CellTiter-Glo reagent from Promega (Madison, WI, USA) according to the manufacturer's instructions. IC50 values were determined by non-linear regression analysis of the concentration response data.

T1 sequence (Q07820 whole entry): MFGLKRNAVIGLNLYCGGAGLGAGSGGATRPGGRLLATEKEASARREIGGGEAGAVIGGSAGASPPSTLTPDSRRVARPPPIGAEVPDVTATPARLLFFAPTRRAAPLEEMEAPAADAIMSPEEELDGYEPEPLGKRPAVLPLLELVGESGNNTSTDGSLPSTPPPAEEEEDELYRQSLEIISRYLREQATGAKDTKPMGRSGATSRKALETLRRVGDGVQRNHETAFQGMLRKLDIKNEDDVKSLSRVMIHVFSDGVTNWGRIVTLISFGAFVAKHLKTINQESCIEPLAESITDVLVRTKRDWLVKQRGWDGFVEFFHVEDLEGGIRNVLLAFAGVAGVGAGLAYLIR
Sequence of BCL-XL (Q07817 whole entry): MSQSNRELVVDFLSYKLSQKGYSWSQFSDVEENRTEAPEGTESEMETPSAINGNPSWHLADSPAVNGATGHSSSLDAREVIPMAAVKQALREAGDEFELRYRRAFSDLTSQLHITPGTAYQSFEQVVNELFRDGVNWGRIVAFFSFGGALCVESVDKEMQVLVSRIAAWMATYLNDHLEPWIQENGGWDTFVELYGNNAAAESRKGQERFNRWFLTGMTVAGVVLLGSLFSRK

For orientation: Ki means the equilibrium dissociation constant of an inhibitor or competing ligand from its target. Consider `Cc1nn(C)c(COc2ccc(N3CCN(S(=O)(=O)N(C)C)CC3)cc2)c1-c1cccc2c(CCCOc3cccc4ccccc34)c(C(=O)O)n(CCN3CCOCC3)c12` [A-1210477], for which the “effect on MCL1 mRNA” value with MCL1 mRNA was “No corresponding increase in MCL1 mRNA”. The “shift in MCL-1 affinity” value at MCL-1 [1] is recorded as over 15 fold. Besides, in the test on RS4;11 cell line, the “effect on cell viability” value was “no effect”. For the same compound, the Ki was over 660 nM on BCL-XL; 0.4 to 0.5 nM and 0.454 nM at MCL-1 [2]. Moreover, in the test on EJ-1 cells, the potentiation of navitoclax entry was “substantially shifted the dose–response curve of navitoclax”.
